Measurements: patent publication US5053070A, “Pyrimidine derivatives, preparation processes thereof, herbicide containing the same, and herbicidal compositions containing the same along with other active ingredient” (Mitsui Toatsu Chemicals, Incorporated, priority 1988, dated 1991)

What was measured:
Assay type in all cases: in vivo
johnsongrass = assay: Upland soil application test (Test 2); conditions: 30 g ai/a, soil spray before emergence, 30 days later
Outline: (§1)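 Damage was graded 30 days after treatment by comparing air-dried plant weight with that of plants in untreated pots. Test compound, given as a diluted wettable powder, had been sprayed on the soil surface one day after sowing, before any weeds emerged.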

redroot pigweed [1] = assay: Upland soil application test (Test 2); conditions: 30 g ai/a, soil spray before emergence, 30 days later
Outline: as §1

common lambsquarters = assay: Upland soil application test (Test 2); conditions: 30 g ai/a, soil spray before emergence, 30 days later
Outline: as §1

green foxtail [2] = assay: Upland soil application test (Test 2); conditions: 30 g ai/a, soil spray before emergence, 30 days later
Outline: as §1

foxtail meadow = assay: Upland soil application test (Test 2); conditions: 30 g ai/a, soil spray before emergence, 30 days later
Outline: as §1

large crabgrass = assay: Upland soil application test (Test 2); conditions: 30 g ai/a, soil spray before emergence, 30 days later
Outline: as §1

barnyardgrass [3] = assay: Upland soil application test (Test 2); conditions: 30 g ai/a, soil spray before emergence, 30 days later
Outline: as §1

Sagittaria pygmaea = assay: Treatment of soil under submerged condition, post-emergence (Test 5); conditions: 30 g ai/a granule, 30 days later
Outline: (§2)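 Scoring of weed emergence and rice injury took place 30 days after treatment. Treatment was a granule of the test composition, applied once barnyardgrass had two leaves, to submerged soil holding sown weeds and transplanted 2–3-leaf rice pairs grown under glass.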

bulrush = assay: as above; conditions: 30 g ai/a granule, 30 days later
Outline: as §2

barnyardgrass [4] = assay: as above; conditions: 30 g ai/a granule, post-emergence (barnyardgrass two-leaf stage), 30 days later
Outline: as §2

rice [5] = assay: Treatment of soil under submerged condition, post-emergence (Test 5), injury; conditions: 30 g ai/a granule, 30 days later
Outline: as §2

rice [6] = assay: Treatment of soil under submerged condition, pre-emergence (Test 4), injury; conditions: 30 g ai/a granule, 30 days later
Outline: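 Flooded soil pots; weeds sown/planted, rice transplanted (2 pairs, 2–3 leaf), greenhouse. Granule applied day 1, pre-emergence of weeds. Scored at 30 d for weed damage and rice injury.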

cotton = assay: Upland foliar application test (Test 3), crop injury; conditions: 30 g ai/a, foliar spray at 2-3 leaves, 30th day
Outline: (§3)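 Plants were grown from seed in upland-field soil in a greenhouse. At the 2-3 leaf stage, an emulsion of each compound, diluted with water, was sprayed on the foliage at a rate equal to 5 l per are with a pressure-operated ULV sprayer. Damage and crop injury were scored on day 30.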

soybean = assay: as above; conditions: 30 g ai/a, foliar spray at 2-3 leaves, 30th day
Outline: as §3

peanut = assay: as above; conditions: 30 g ai/a, foliar spray at 2-3 leaves, 30th day
Outline: as §3

redroot pigweed [7] = assay: Upland foliar application test by mixed formulations (Test 7); conditions: Amaranthus retroflexus, 720 h, applied alone, 0.3 kg/ha, 30th day, read-out: Herbicidal effects (%) Redrood pigweed Ea
Protocol: (§4) Resin-made 1/10,000-are pots were filled with the soil of an upland field. Redroot pigweed, morningglories, johnsongrass, barnyardgrass and green foxtail were separately seeded and were allowed to germinate in a green house. When each plant grew to the stage of 2-3 leaves, an emulsion formulated from predetermined amounts of two test compounds of different kinds in a similar manner to the method described in Formulation Example 16 was diluted with water to a predetermined dilution rate and then sprayed at an application rate equal to 5 l per are onto the foliage of each plant by means of a pressure-operated ULV (ultra low volume) sprayer. Influence to the weeds were observed on the 30th day after the spray of the herbicides. In the table, each Ea means an acutally measured value of herbicidal activities when two kinds of herbicides were mixed. Each Ec is an expected value for herbicidal activities, calculated in accordance with the below-described calculation formula proposed by Colby et al. [Colby, S. R., Weed 15, 20-22 (1967)]. Ea>Ec indicates the existence of synergistic action while […] action. [formula] Ec: Growth inhibition rate (%) expected when Ingredient I and Ingredient II are mixed.
(§5) Ex: Growth inhibition rate (%) when treated with Ingredient I alone.
(§6) Ey: Growth inhibition rate (%) when treated with Ingredient II alone.

green foxtail [8] = assay: as above; conditions: Setaria viridis, 720 h, applied alone, 0.3 kg/ha, 30th day, read-out: Herbicidal effects (%) Green foxtail Ea
Protocol: as §4, §5, §6

morningglories = assay: as above; conditions: Ipomoea, 720 h, applied alone, 0.3 kg/ha, 30th day, read-out: Herbicidal effects (%) Morningglory Ea
Protocol: as §4, §5, §6

| Structure (SMILES) | Herbicidal effects Johnsongrass (johnsongrass) | Herbicidal effects Redroot pigweed (redroot pigweed [1]) | Herbicidal effects Common lambsquarters (common lambsquarters) | Herbicidal effects Green foxtail (green foxtail [2]) | Herbicidal effects Foxtail meadow (foxtail meadow) | Herbicidal effects Large crabgrass (large crabgrass) | Herbicidal effects Barnyardgrass (barnyardgrass [3]) | Herbicidal effects Sagittaria Pygmaea (Sagittaria pygmaea) | Herbicidal effects Bulrush (bulrush) | Herbicidal effects Barnyardgrass (barnyardgrass [4]) | Injury Rice (rice [5]) | Injury Rice (rice [6]) | Injury Cotton (cotton) | Injury Soybean (soybean) | Injury Peanut (peanut) | pest or weed control at 300 g/ha (redroot pigweed [7]) [%] | pest or weed control at 300 g/ha (green foxtail [8]) [%] | pest or weed control at 300 g/ha (morningglories) [%] |
| --- | --- | --- | --- | --- | --- | --- | --- | --- | --- | --- | --- | --- | --- | --- | --- | --- | --- | --- |
| COc1cc(OC)nc(Oc2ccccc2C=NOCC=Cc2ccccc2Br)n1 [compound 40] | 4 (6-10 (Severe damages)) | 5 (0-5 (Death)) | 4 (6-10 (Severe damages)) | 4 (6-10 (Severe damages)) | 5 (0-5 (Death)) | 4 (6-10 (Severe damages)) | 5 (0-5 (Death)) | 4 (6-10 (Severe damages)) | 4 (6-10 (Severe damages)) | 5 (0-5 (Death)) | 1 (71-90 (Slight damages)) | 0 (91-100 (No damages)) | 0 (91-100 (No damages)) | 0 (91-100 (No damages)) | 0 (91-100 (No damages)) | 20 | 10 | 0 |
| COc1cc(OC)nc(Oc2ccccc2C=NOCC=C(C)Cl)n1 [compound 12] | 4 (6-10 (Severe damages)) | 3 (11-40 (Medium damages)) | 3 (11-40 (Medium damages)) | 4 (6-10 (Severe damages)) | 4 (6-10 (Severe damages)) | 4 (6-10 (Severe damages)) | 4 (6-10 (Severe damages)) | 3 (11-40 (Medium damages)) | 5 (0-5 (Death)) | 5 (0-5 (Death)) | 0 (91-100 (No damages)) | 1 (71-90 (Slight damages)) | 0 (91-100 (No damages)) | 0 (91-100 (No damages)) | 0 (91-100 (No damages)) | – | – | – |
| COc1cc(OC)nc(Oc2ccccc2C=NOCC=Cc2cccc(Cl)c2Cl)n1 [compound 41] | 4 (6-10 (Severe damages)) | 5 (0-5 (Death)) | 4 (6-10 (Severe damages)) | 4 (6-10 (Severe damages)) | 4 (6-10 (Severe damages)) | 5 (0-5 (Death)) | 5 (0-5 (Death)) | 4 (6-10 (Severe damages)) | 4 (6-10 (Severe damages)) | 5 (0-5 (Death)) | 0 (91-100 (No damages)) | 0 (91-100 (No damages)) | 0 (91-100 (No damages)) | 0 (91-100 (No damages)) | 0 (91-100 (No damages)) | – | – | – |
| C=CC(C)ON=Cc1ccccc1Oc1nc(OC)cc(OC)n1 (stereo not drawn) [Compound No. 2] | 5 (0-5 (Death)) | 4 (6-10 (Severe damages)) | 4 (6-10 (Severe damages)) | 5 (0-5 (Death)) | 5 (0-5 (Death)) | 5 (0-5 (Death)) | 5 (0-5 (Death)) | 5 (0-5 (Death)) | 5 (0-5 (Death)) | 5 (0-5 (Death)) | 0 (91-100 (No damages)) | 1 (71-90 (Slight damages)) | 0 (91-100 (No damages)) | 0 (91-100 (No damages)) | 0 (91-100 (No damages)) | – | – | – |
| COc1cc(OC)nc(Oc2ccccc2C=O)n1 [B, reference compound] | 4 (6-10 (Severe damages)) | 3 (11-40 (Medium damages)) | 3 (11-40 (Medium damages)) | 4 (6-10 (Severe damages)) | 4 (6-10 (Severe damages)) | 4 (6-10 (Severe damages)) | 4 (6-10 (Severe damages)) | 4 (6-10 (Severe damages)) | 5 (0-5 (Death)) | 5 (0-5 (Death)) | 5 (0-5 (Death)) | 5 (0-5 (Death)) | 5 (0-5 (Death)) | 5 (0-5 (Death)) | 5 (0-5 (Death)) | – | – | – |
| COc1cc(OC)nc(Oc2ccccc2C=NOCC=Cc2ccc(Cl)c(Cl)c2)n1 [compound 31] | 5 (0-5 (Death)) | 3 (11-40 (Medium damages)) | 3 (11-40 (Medium damages)) | 4 (6-10 (Severe damages)) | 4 (6-10 (Severe damages)) | 4 (6-10 (Severe damages)) | 4 (6-10 (Severe damages)) | 4 (6-10 (Severe damages)) | 4 (6-10 (Severe damages)) | 5 (0-5 (Death)) | 0 (91-100 (No damages)) | 0 (91-100 (No damages)) | 0 (91-100 (No damages)) | 0 (91-100 (No damages)) | 0 (91-100 (No damages)) | – | – | – |
| COc1cc(OC)nc(Oc2ccccc2C=NOCCc2ccccc2)n1 [compound 23] | 4 (6-10 (Severe damages)) | 3 (11-40 (Medium damages)) | 4 (6-10 (Severe damages)) | 3 (11-40 (Medium damages)) | 3 (11-40 (Medium damages)) | 3 (11-40 (Medium damages)) | 3 (11-40 (Medium damages)) | 5 (0-5 (Death)) | 4 (6-10 (Severe damages)) | 5 (0-5 (Death)) | 0 (91-100 (No damages)) | 0 (91-100 (No damages)) | 0 (91-100 (No damages)) | 0 (91-100 (No damages)) | 0 (91-100 (No damages)) | – | – | – |
